The record followed here is US9949929B2, “Drug carrier and manufacturing method thereof” (National Taiwan University Hospital, priority 2015, dated 2018).

Data set [1] in a line: temperature increase of samples irradiated by near-infrared laser (photothermal). The class given is physicochemical. Conditions: near-infrared laser 1 W/cm^2, 650 nm. An excerpt: (§1) The drug carriers of example 1 and example 2 are used for preparing nanomicelles and drug-encapsulating nanomicelles so as to undergo the following tests. When preparing the nanomicelles, the dried drug carriers are uniformly dissolved in dimethyl sulfoxide (DMSO) to obtain a drug-carrier-DMSO solution. Next, the dimethyl sulfoxide (DMSO) in the drug-carrier-DMSO solution is removed by lyophilization, and the nanomicelles formed by self-assembly of the drug carriers are left. Last, the nanomicelles are put into a phosphate buffered saline (PBS) and sonicated for 20 min; therefore, the nanomicelles are uniformly dissolved in the phosphate buffered saline (PBS) for the following tests.
(§2) When preparing the drug-encapsulating nanomicelles, the drug molecules selected to be encapsulated in the nanomicelles are Doxorubicin (Doxo). First, the dried drug carriers and Doxorubicin molecules are uniformly dissolved in dimethyl sulfoxide (DMSO) to obtain a drug-carrier-Doxorubicin-DMSO solution. […]
Please refer to FIG. 5. […] When a temperature increase of samples irradiated by near-infrared light (NIR) is measured, the near-infrared light is a near-infrared laser, and the samples are the phosphate buffered saline (PBS), the Doxorubicin (Doxo), the nanomicelles and the drug-encapsulating nanomicelles which encapsulate the Doxorubicin (Doxo). […]

The subject of data set [2] is cancer cells. The experiment in a line: cell viability of cancer cells treated with nanomicelles, drug-encapsulating nanomicelles or free Doxorubicin. Further details: dose or concentration left out as unconfirmed. In kind it is cell-based.
Excerpt: as §1
as §2, with “solution. Next, the dimethyl sulfoxide (DMSO) in the drug-carrier-Doxorubicin-DMSO solution is removed by lyophilization, and the drug-encapsulating nanomicelles formed by self-assembly of the drug carriers as well as Doxorubicin crystals which are not encapsulated in the drug-encapsulating nanomicelles are left.” for “solution.”

`COc1cccc2c1C(=O)c1c(O)c3c(c(O)c1C2=O)C[C@@](O)(C(=O)CO)C[C@@H]3O[C@H]1C[C@H](N)[C@H](O)[C@H](C)O1` [Doxorubicin (Doxo), Doxorubicin]: the “temperature change as irradiation time is increased” value in data set [1] is given as “no significant change”. In data set [2], the “cell viability of the cancer cell” value was 80%.
